Laboratory results from the supplement of paper PMC10307832.

Experiments:
Experiment in all cases: relative viability (nuclei count vs DMSO), 5 days (fraction); higher = more cells survive
CUDC-101 + Foretinib = compound: C#Cc1cccc(Nc2ncnc3cc(OC)c(OCCCCCCC(=O)NO)cc23)c1 [CUDC-101] + COc1cc2c(Oc3ccc(NC(=O)C4(C(=O)Nc5ccc(F)cc5)CC4)cc3F)ccnc2cc1OCCCN1CCOCC1 [Foretinib] (partner 0.25 µM)
Procedure, shortened: (§1)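 Five library-drug doses in √10 steps were combined with a fixed anchor-drug dose, or a single drug was given alone, by pin tool to lung cancer cell lines in 1536-well plates the day after seeding. Nuclei were stained and counted after 5 days. Relative viability is the nuclei count in treated wells over that in vehicle wells, taken as the median of duplicate plates.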

CUDC-101 + Alpelisib = compound: C#Cc1cccc(Nc2ncnc3cc(OC)c(OCCCCCCC(=O)NO)cc23)c1 [CUDC-101] + Cc1nc(NC(=O)N2CCC[C@H]2C(N)=O)sc1-c1ccnc(C(C)(C)C(F)(F)F)c1 [Alpelisib] (partner 2 µM)
Procedure, shortened: as §1

[1] = compound: C1=CC=C2C(=C1)N=C(S2)C(C#N)C3=NC(=NC=C3)NCCC4=CN=CC=C4 + CS(=O)(=O)CCNCc1ccc(-c2ccc3ncnc(Nc4ccc(OCc5cccc(F)c5)c(Cl)c4)c3c2)o1 [Lapatinib] (partner 2 µM)
Procedure, shortened: as §1

NVP-TAE684 + Lapatinib = compound: COc1cc(N2CCC(N3CCN(C)CC3)CC2)ccc1Nc1ncc(Cl)c(Nc2ccccc2S(=O)(=O)C(C)C)n1 [NVP-TAE684] + CS(=O)(=O)CCNCc1ccc(-c2ccc3ncnc(Nc4ccc(OCc5cccc(F)c5)c(Cl)c4)c3c2)o1 [Lapatinib] (partner 2 µM)
Procedure, shortened: as §1

Cell Line	relative viability (CUDC-101 + Foretinib; first compound 0.01 µM)	relative viability (CUDC-101 + Foretinib; first compound 0.03162 µM)	relative viability (CUDC-101 + Foretinib; first compound 0.1 µM)	relative viability (CUDC-101 + Foretinib; first compound 0.3162 µM)	relative viability (CUDC-101 + Foretinib; first compound 1 µM)	relative viability (CUDC-101 + Alpelisib; first compound 0.01 µM)	relative viability (CUDC-101 + Alpelisib; first compound 0.03162 µM)	relative viability (CUDC-101 + Alpelisib; first compound 0.1 µM)	relative viability (CUDC-101 + Alpelisib; first compound 0.3162 µM)	relative viability (CUDC-101 + Alpelisib; first compound 1 µM)	relative viability ([1]; first compound 0.005 µM)	relative viability ([1]; first compound 0.01581 µM)	relative viability ([1]; first compound 0.05 µM)	relative viability ([1]; first compound 0.1581 µM)	relative viability ([1]; first compound 0.5 µM)	relative viability (NVP-TAE684 + Lapatinib; first compound 0.2 µM)	relative viability (NVP-TAE684 + Lapatinib; first compound 2 µM)	relative viability (NVP-TAE684 + Lapatinib; first compound 0.6325 µM)
EPLC-272H	0.664	0.723	0.646	0.341	0.585	0.985	0.887	0.92	0.926	0.845	0.784	0.642	1.02	1.15	0.684	0.813	0.955	
NCI-H1703	0.323		0.353	0.402	0.424	0.303		0.322	0.53	0.506	0.869	1.11	0.851	1.1	1.19	1.41	0.392	0.994
HCC-15	1.09	0.993	0.966	1.09	0.933	0.875	0.888	0.909	0.909	0.763	0.798	0.84	0.817	0.947	0.805	0.914	0.808	0.893
NCI-H2347	0.888	0.948	0.902	0.99	0.689	1.09	1.08	1.09	1.11	1.03	1.08	0.909	0.846	1.04	0.91	1	0.955	0.903
COR-L 105	0.941	0.987	0.951	0.793	0.527	1.17	0.848	0.88	0.829	0.52	0.362	0.336	0.342	0.372	0.369	0.376	0.235	0.319
NCI-H1650	1.09	0.615	0.976	0.905	0.59						0.894	0.658	0.758	0.829	0.863	0.958	0.347	0.684
NCI-H838	1.04	1.02	1.08	1.23	0.862	1.01	0.89	1.06	1.08	0.914	0.916	0.962	1.12	1.15	0.95	1.12	0.287	0.758
NCI-H2009	1.2	1.18	1.36	1.28	1.14	1.13	1.1	1.14	1.07	1.04	0.899	0.892	0.977	1.11	1.02	0.938	0.731	0.888
SK-MES-1	0.937	0.843	0.981	1.01	0.679	0.798	0.877	0.879	0.874	0.592	0.455	0.542	0.408	0.473	0.445	0.539	0.472	0.453
H3255	0.864	0.917		0.486	0.279	0.71	0.552	0.177	0.375	0.136	0.225	0.227	0.234	0.261	0.251	0.279	0.167	0.18
HCC-78	0.549	0.56	0.543	0.494	0.268	0.288	0.282	0.452	0.256	0.146	1.07	0.664	0.57	1.01	0.896	1.26	0.255	1.3
EMC-BAC-2	1.12	0.982	0.954	1.03	0.56	0.759	0.737	0.757	0.741	0.499	0.845	0.855	0.826	1.02	0.879	0.856	0.586	0.805
Calu-6	0.932	0.857	0.878	0.823	0.714	1.02	0.939	0.986	1	0.763	0.877	1.05	0.959	1.18	0.958	1.31		0.94
NCI-H2170	0.978	0.973	1.05	0.995	0.903	0.88	0.744	0.724	0.658	0.47		0.258	0.249	0.285	0.259	0.253	0.247	0.244
NCI-H2228	0.763	0.939	1.11	0.964	0.719	0.795	0.802	0.625	0.563	0.491	0.725	1.01	1.18	1.46	0.924	0.458	0.321	0.212
ChaGo-K-1	0.916	0.875	0.945	0.894	0.709													
NCI-H2342	0.995	1.02	1.03	1.08	0.946													
LCLC-103H	0.753	0.854	0.808	0.751	0.513	0.93	0.95	1.01	1.02	0.953								
SW 900	0.761	0.629	0.738	0.885	0.716													
NCI-H441	0.976	1.23	1.05	0.978	0.937	0.842	0.847	0.879	0.589	0.572								
HCC-44						0.641	0.664	0.771	0.781	0.685	0.848	1.02	1.01	1.16	0.823	1.23	0.979	1.03
